Experiments:
human HCN1 = biological target: T1, human HCN1 (Homo sapiens, UniProt O60741); format: cell-based
T1 construct: expressed in transfected cells; host or cells: HEK-293H
T1 sequence (O60741 1-890): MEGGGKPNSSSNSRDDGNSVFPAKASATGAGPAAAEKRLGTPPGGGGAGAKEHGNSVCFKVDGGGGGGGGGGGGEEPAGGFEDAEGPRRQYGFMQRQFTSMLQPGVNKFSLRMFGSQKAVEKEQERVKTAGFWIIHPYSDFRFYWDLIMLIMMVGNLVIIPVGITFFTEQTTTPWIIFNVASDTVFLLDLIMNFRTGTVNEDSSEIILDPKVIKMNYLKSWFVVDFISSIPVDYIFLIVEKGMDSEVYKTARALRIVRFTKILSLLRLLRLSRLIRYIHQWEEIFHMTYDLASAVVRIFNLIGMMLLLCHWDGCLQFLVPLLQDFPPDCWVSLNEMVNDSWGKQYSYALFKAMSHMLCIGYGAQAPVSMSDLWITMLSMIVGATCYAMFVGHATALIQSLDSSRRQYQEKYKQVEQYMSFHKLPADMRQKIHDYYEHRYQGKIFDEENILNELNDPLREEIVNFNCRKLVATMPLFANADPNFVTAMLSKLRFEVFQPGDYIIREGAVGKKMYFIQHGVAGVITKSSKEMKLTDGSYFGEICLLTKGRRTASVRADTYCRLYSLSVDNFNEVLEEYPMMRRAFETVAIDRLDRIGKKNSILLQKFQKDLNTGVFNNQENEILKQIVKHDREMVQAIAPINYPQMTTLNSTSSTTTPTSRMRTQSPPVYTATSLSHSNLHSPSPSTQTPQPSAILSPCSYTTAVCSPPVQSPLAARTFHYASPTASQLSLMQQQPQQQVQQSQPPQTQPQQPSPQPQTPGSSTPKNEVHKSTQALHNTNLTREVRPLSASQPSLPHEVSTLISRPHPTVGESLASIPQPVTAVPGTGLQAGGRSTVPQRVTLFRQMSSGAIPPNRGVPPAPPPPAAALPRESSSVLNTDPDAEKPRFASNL

HCN3 channel = biological target: T2, HCN3 channel (Homo sapiens, UniProt Q9P1Z3); assay: MPSD FLIPR/FLEX 96 well hyperpolarization assay, HCN3; format: cell-based; details: HCN3 channel expressing HEK-293H cells, ZD7288 30 μM (FIG. 7A)
T2 construct: expressed in transfected cells; host or cells: HEK-293H
T2 sequence (Q9P1Z3 1-774): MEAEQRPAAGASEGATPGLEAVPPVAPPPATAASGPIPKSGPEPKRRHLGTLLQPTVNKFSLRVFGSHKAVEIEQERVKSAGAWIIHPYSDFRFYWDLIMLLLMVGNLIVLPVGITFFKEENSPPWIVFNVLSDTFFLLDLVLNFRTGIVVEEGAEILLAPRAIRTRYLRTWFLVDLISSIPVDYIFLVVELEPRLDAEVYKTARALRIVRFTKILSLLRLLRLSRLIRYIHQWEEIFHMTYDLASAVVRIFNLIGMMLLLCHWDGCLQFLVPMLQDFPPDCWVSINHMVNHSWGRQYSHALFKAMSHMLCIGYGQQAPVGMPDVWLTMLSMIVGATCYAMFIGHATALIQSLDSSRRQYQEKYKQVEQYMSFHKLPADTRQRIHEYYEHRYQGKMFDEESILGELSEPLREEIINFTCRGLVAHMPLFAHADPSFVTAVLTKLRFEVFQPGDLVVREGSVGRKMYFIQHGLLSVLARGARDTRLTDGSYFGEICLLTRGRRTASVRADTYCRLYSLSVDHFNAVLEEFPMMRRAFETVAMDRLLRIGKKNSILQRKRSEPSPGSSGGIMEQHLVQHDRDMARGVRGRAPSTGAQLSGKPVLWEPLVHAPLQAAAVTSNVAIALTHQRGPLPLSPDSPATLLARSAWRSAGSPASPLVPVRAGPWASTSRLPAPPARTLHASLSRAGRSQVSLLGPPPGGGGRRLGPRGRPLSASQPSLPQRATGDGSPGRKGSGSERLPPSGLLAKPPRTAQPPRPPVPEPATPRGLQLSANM
Procedure: The above-described assay was modified for use with the FLIPR®^96 or FLEX^96 96 well plate format. In brief, cells stably expressing HCN channels were plated at 40-80×10^3 cells/plate in 100-150 μl/well of DMEM supplemented with 10% fetal bovine serum, 1× NEAA, and 1× penicillin/streptomycin. Cells were cultured for 24-48 hours in a 5% CO2/air humidifiedincubator at 37° C. Cells were incubated in 30 μl/well of HBSS containing MPSD, as described above, for 15-45 minutes at room temperature.
Membrane potentials were measured at room temperature (21°-23°) using a FLIPR® system or a FLEXSTATION® (Molecular Devices of Sunnydale, Calif.). Control cells were incubated in HBSS/MPSD without a test agent. For identification of HCN channel modulators, cells were incubated in HBSS/MPSD and the presence of a test agent as described in Examples 5 and 6 herein below. […]
Cells were incubated in 30 μl HBSS supplemented with MPSD with or without 50 μM of the channel inhibitor ZD7288, dissolved in <1.0% dimethyl sulfoxide (DMSO) added to the HBSS solution. […] The change in fluorescence (ΔF) was measured for a total assay time of about 100 seconds. […]
FIG. 6A depicts the whole-plate screenshot of the changes in fluorescence/membrane potential over time. FIG. 7A depicts the change in fluorescence (F) over time for control cells (upper trace) and for cells exposed to ZD7288 at a concentration of 30 μM (lower trace). […]

CCN(c1ccccc1)c1cc(=NC)n(C)c(C)n1.Cl [ZD7288]
reversal of hyperpolarization induced by low sodium/potassium diluent (human HCN1): reversed | blockade of hyperpolarization (change in fluorescence) (HCN3 channel): effectively blocked hyperpolarization

From US20090029366A1 (priority 2007, published 2009)
